One block for each molecule: values may come before it.
What was measured:
[1] = Oral bioavailability in rat at 10 mg/kg; format: ADME, organism-based; conditions: in vivo
Cytochrome P450 3A4 [2] = target: T1, Cytochrome P450 3A4 (Homo sapiens, UniProt P08684); experiment: Inhibition of CYP3A4 (unknown origin) under pre-incubation condition; format: ADME
hERG (KCNH2) = hERG (KCNH2) (Homo sapiens, UniProt Q12809); experiment: Inhibition of human ERG at […] by Rb efflux assay
Cytochrome P450 3A4 [3] = target: T1, Cytochrome P450 3A4; experiment: Inhibition of CYP3A4 (unknown origin) under co-incubation condition; format: ADME
HT-29 [4] = experiment: Induction of apoptosis in human HT-29 cells harboring BRAF/KRAS mutant by caspase activation assay; format: functional, cell-based
[5] = Oral bioavailability in rat at or 10 mg/kg; format: ADME, organism-based; conditions: in vivo
HT-29 [6] = experiment: Antiproliferative activity against human HT-29 cells harboring BRAF/KRAS mutant; format: functional, cell-based
[7] = Apparent permeability in human Caco2 cells […]; format: ADME, cell-based; conditions: Caco-2
[8] = target: Mitogen-activated protein kinase 1 (Homo sapiens, UniProt P28482); experiment: Inhibition of ERK2 (unknown origin)
[9] = Clearance in dog hepatocytes assessed per million cells; format: ADME, cell-based, Canis lupus familiaris, Hepatocyte
[10] = AUC in rat at 10 mg/kg; format: ADME, organism-based; conditions: in vivo
[11] = AUC in dog at 10 mg/kg, po; format: ADME, organism-based, Canis lupus familiaris; conditions: in vivo
[12] = Clearance in human hepatocytes assessed per million cells; format: ADME, cell-based, Hepatocyte
[13] = Half life in rat at 3 mg/kg, iv or 10 mg/kg, po; format: ADME, organism-based; conditions: in vivo
[14] = MRT in rat at 3 mg/kg, iv or 10 mg/kg, po; format: ADME, organism-based; conditions: in vivo
[15] = Half life in dog at 2 mg/kg, iv or 2 mg/kg dosed via portal vein infusion or 10 mg/kg, po; format: ADME, organism-based, Canis lupus familiaris; conditions: in vivo
[16] = Total plasma clearance in rat at 3 mg/kg, iv or 10 mg/kg, po; format: ADME, organism-based
[17] = MRT in dog at 2 mg/kg, iv or 2 mg/kg dosed via portal vein infusion or 10 mg/kg, po; format: ADME, organism-based, Canis lupus familiaris; conditions: in vivo
[18] = Oral bioavailability in dog at 10 mg/kg; format: ADME, organism-based, Canis lupus familiaris; conditions: in vivo
[19] = Total plasma clearance in dog at 2 mg/kg, iv or 2 mg/kg dosed via portal vein infusion or 10 mg/kg, po; format: ADME, organism-based, Canis lupus familiaris
[20] = Drug metabolism in rat urine assessed as amide hydrolysis followed by glucuronidation level 10 mg/kg, iv measured during 8 to 24 hrs post dose by LC-ESI/MS/MS analysis; format: ADME, organism-based; conditions: in vivo
[21] = Drug metabolism in rat urine assessed as amide hydrolysis followed by glucuronidation level 10 mg/kg, iv measured during 0 to 8 hrs post dose by LC-ESI/MS/MS analysis; format: ADME, organism-based; conditions: in vivo
[22] = Drug metabolism in human cryopreserved hepatocytes assessed as (R)-1-(2-oxo-2-(4-(4-(pyrimidin-2-yl)phenyl)piperazin-1-yl)ethyl)pyrrolidine-3-carboxylic acid formation at 1 uCi/ml up to 4 hrs by LC-ESI/MS/MS analysis; format: ADME, cell-based, Hepatocyte
[23] = Drug metabolism in rat cryopreserved hepatocytes assessed as N-(3-(4-fluorophenyl)-1H-indazol-5-yl)acetamide formation at 10 uM up to 4 hrs by LC-ESI/MS/MS analysis; format: ADME, cell-based, Hepatocyte
[24] = Drug metabolism in rat bile assessed as amide hydrolysis followed by glucuronidation level 10 mg/kg, iv measured during 0 to 8 hrs post dose by LC-ESI/MS/MS analysis; format: ADME, organism-based; conditions: in vivo
[25] = Drug metabolism in rat cryopreserved hepatocytes assessed as (R)-1-(2-oxo-2-(4-(4-(pyrimidin-2-yl)phenyl)piperazin-1-yl)ethyl)pyrrolidine-3-carboxylic acid formation at 10 uM up to 4 hrs by LC-ESI/MS/MS analysis; format: ADME, cell-based, Hepatocyte
[26] = Drug metabolism in human cryopreserved hepatocytes assessed as N-(3-(4-fluorophenyl)-1H-indazol-5-yl)acetamide formation at 1 uCi/ml up to 4 hrs by LC-ESI/MS/MS analysis; format: ADME, cell-based, Hepatocyte
[27] = Drug metabolism in rat bile assessed as amide hydrolysis followed by glucuronidation level 10 mg/kg, iv measured during 8 to 24 hrs post dose by LC-ESI/MS/MS analysis; format: ADME, organism-based; conditions: in vivo
[28] = Drug level in rat cryopreserved hepatocytes treated with (R)-N-(3-(4-fluorophenyl)-1H-indazol-5-yl)-1-(2-oxo-2-(4-(4-(pyrimidin-2-yl)phenyl)piperazin-1-yl)ethyl)pyrrolidine-3-carboxamide at 10 uM up to 4 hrs by LC-ESI/MS/MS analysis; format: ADME, cell-based, Hepatocyte
[29] = Drug level in human cryopreserved hepatocytes treated with [3H]8 at 1 uCi/ml up to 4 hrs by LC-ESI/MS/MS analysis; format: ADME, cell-based, Hepatocyte

T1 sequence (P08684 whole entry): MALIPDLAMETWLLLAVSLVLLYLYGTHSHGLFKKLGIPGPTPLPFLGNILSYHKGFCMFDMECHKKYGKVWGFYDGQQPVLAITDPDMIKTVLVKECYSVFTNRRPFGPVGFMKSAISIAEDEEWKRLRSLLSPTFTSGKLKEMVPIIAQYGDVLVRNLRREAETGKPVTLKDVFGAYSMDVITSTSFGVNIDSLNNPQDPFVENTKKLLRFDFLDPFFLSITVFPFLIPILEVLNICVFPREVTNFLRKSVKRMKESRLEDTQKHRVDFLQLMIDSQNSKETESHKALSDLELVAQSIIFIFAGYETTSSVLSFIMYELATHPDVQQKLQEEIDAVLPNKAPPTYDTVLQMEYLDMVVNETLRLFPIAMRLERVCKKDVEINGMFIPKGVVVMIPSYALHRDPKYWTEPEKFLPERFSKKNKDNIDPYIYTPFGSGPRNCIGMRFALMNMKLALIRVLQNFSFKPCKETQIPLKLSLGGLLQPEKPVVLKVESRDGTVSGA
hERG (KCNH2), sequence (Q12809 whole entry): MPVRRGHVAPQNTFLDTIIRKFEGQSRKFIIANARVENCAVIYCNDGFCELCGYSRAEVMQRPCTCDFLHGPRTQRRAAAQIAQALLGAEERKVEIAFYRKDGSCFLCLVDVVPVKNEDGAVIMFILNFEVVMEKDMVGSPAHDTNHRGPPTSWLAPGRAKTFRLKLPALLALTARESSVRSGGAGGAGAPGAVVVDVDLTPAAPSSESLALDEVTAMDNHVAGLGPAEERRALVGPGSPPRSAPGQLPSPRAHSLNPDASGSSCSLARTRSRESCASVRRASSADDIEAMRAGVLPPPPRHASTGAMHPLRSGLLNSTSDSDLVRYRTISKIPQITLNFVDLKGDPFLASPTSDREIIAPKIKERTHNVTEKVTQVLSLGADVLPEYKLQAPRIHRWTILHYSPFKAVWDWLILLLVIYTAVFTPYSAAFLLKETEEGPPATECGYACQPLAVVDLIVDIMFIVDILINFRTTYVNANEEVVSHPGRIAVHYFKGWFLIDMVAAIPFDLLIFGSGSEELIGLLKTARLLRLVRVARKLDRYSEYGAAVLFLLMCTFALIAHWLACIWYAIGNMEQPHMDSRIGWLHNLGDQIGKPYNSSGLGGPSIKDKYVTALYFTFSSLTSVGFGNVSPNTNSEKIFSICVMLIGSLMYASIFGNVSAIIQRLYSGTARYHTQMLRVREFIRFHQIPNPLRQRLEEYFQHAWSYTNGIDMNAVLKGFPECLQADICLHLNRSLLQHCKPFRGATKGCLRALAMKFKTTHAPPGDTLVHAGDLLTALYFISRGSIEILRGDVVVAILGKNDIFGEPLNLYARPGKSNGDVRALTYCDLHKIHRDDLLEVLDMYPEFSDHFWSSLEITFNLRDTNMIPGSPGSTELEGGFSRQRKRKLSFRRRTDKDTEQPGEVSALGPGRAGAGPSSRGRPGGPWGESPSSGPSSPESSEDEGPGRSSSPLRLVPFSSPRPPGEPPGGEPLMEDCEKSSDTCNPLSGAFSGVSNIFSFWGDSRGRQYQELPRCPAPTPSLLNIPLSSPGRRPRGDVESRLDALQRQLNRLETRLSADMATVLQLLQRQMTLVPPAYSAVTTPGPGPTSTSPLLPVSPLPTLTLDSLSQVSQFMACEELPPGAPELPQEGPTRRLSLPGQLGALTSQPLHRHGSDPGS
Mitogen-activated protein kinase 1, sequence (P28482 whole entry): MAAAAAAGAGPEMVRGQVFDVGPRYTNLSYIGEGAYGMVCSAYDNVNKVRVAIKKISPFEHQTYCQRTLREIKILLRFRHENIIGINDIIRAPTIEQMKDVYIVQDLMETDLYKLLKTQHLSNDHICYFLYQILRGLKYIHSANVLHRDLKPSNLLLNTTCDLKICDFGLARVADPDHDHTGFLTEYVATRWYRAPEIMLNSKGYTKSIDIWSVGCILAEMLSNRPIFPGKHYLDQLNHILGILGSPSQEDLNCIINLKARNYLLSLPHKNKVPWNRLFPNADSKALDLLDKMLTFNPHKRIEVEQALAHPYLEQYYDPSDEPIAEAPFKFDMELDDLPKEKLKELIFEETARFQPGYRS

SMILES: O=C(Nc1ccc2[nH]nc(-c3ccncc3)c2c1)[C@@H]1CCN(CC(=O)N2CCN(c3ccc(-c4ncccn4)cc3)CC2)C1
bioavailability [1]: 0%
IC50 (Cytochrome P450 3A4 [2]): 5700 nM
inhibition at […] (hERG (KCNH2)): 12%
IC50 (Cytochrome P450 3A4 [3]): 7800 nM
IC50 (HT-29 [4]): 96 nM
bioavailability [5]: 0%
IC50 (HT-29 [6]): 59 nM
Papp [7]: 4 ×10⁻⁶ cm/s

SMILES: COC[C@@]1(C(=O)Nc2ccc3[nH]nc(-c4ccc(F)cc4)c3c2)CCN(CC(=O)N2CC=C(c3ccc(-c4ncccn4)cc3)CC2)C1
IC50 [8]: 41 nM

SMILES: [3H]c1cc(N2CCN(C(=O)CN3CC[C@@H](C(=O)Nc4ccc5[nH]nc(-c6c([3H])cc(F)cc6[3H])c5c4)C3)CC2)cc([3H])c1-c1ncccn1
Drug metabolism [20]: Metabolite_Detected
Drug metabolism [21]: Metabolite_Detected
Drug metabolism [22]: Metabolite_Detected
Drug metabolism [23]: Metabolite_Detected
Drug metabolism [24]: Metabolite_Detected
Drug metabolism [25]: Metabolite_Detected
Drug metabolism [26]: Metabolite_Detected
Drug metabolism [27]: Metabolite_Detected

SMILES: O=C(CN1CCC(Oc2ccccc2)(C(=O)Nc2ccc3[nH]nc(-c4ccc(F)cc4)c3c2)C1)N1CCN(c2ccc(-c3ncccn3)cc2)CC1 (stereo not drawn)
IC50 [8]: > 3000 nM

SMILES: O=C(O)[C@@H]1CCN(CC(=O)N2CCN(c3ccc(-c4ncccn4)cc3)CC2)C1
Drug metabolism [28]: Metabolite_Detected
Drug metabolism [29]: Metabolite_Detected

SMILES: O=C(CN1CC[C@@H](CNc2ccc3[nH]nc(-c4ccc(F)cc4)c3c2)C1)N1CCN(c2ccc(-c3ncccn3)cc2)CC1
IC50 [8]: 960 nM

SMILES: CC(=O)Nc1ccc2[nH]nc(-c3ccc(F)cc3)c2c1
Drug metabolism [28]: Metabolite_Detected
Drug metabolism [29]: Metabolite_Detected

SMILES: CC(C)O[C@@]1(C(=O)Nc2ccc3[nH]nc(-c4ccc(F)cc4)c3c2)CCN(CC(=O)N2CCN(c3ccc(-c4ncccn4)cc3)CC2)C1
IC50 [8]: 90 nM

SMILES: CC(=O)N(C[C@@H]1CCN(CC(=O)N2CCN(c3ccc(-c4ncccn4)cc3)CC2)C1)c1ccc2[nH]nc(-c3ccc(F)cc3)c2c1
IC50 [8]: 574 nM

SMILES: CS[C@]1(C(=O)Nc2ccc3[nH]nc(-c4ccc(F)cc4)c3c2)CCN(CC(=O)N2CC=C(c3ccc(-c4ncccn4)cc3)CC2)C1
IC50 [8]: > 3000 nM

SMILES: CC[C@@]1(C(=O)Nc2ccc3[nH]nc(-c4ccc(F)cc4)c3c2)CCN(CC(=O)N2CC=C(c3ccc(-c4ncccn4)cc3)CC2)C1
IC50 [8]: 115 nM

SMILES: O=C(Nc1ccc2[nH]nc(-c3ccc(F)cc3)c2c1)C1CN(CC(=O)N2CC=C(c3ccc(-c4ncccn4)cc3)CC2)CCS1 (stereo not drawn)
IC50 [8]: 1310 nM

SMILES: CN(C)C1(C(=O)Nc2ccc3[nH]nc(-c4ccc(F)cc4)c3c2)CCN(CC(=O)N2CC=C(c3ccc(-c4ncccn4)cc3)CC2)C1 (stereo not drawn)
IC50 [8]: 21 nM

SMILES: COC[C@@]1(C(=O)Nc2ccc3[nH]nc(-c4ccc(F)cc4)c3c2)CCN(CC(=O)N2CCN(c3ccc(-c4ncccn4)cc3)CC2)C1
IC50 [8]: 25 nM

SMILES: O=C(CN1CCCC(c2cn(-c3ccc4[nH]nc(-c5ccc(F)cc5)c4c3)nn2)C1)N1CC=C(c2ccc(-c3ncccn3)cc2)CC1 (stereo not drawn)
IC50 [8]: > 1000 nM

SMILES: C[C@@]1(C(=O)Nc2ccc3[nH]nc(-c4ccc(F)cc4)c3c2)CCN(CC(=O)N2CCN(c3ccc(-c4ncccn4)cc3)CC2)C1
IC50 [8]: 24 nM

SMILES: O=C(Nc1ccc2[nH]nc(-c3ccc(F)cc3)c2c1)C1CN(CC(=O)N2CC=C(c3ccc(-c4ncccn4)cc3)CC2)CCO1 (stereo not drawn)
IC50 [8]: 119 nM

More lines, in order of falling IC50 [8], values ahead:

IC50 [8]: 15.5 nM
SMILES: O=C(Nc1ccc2[nH]nc(-c3ccc(F)cc3)c2c1)[C@@H]1CCN(CC(=O)N2CC=C(c3ccc(-c4ncccn4)cc3)CC2)C1

IC50 [8]: 14 nM
SMILES: O=C(CN1CC[C@@](CO)(C(=O)Nc2ccc3[nH]nc(-c4ccc(F)cc4)c3c2)C1)N1CC=C(c2ccc(-c3ncccn3)cc2)CC1

IC50 [8]: 12 nM
SMILES: CS(=O)(=O)[C@@]1(C(=O)Nc2ccc3[nH]nc(-c4ccc(F)cc4)c3c2)CCN(CC(=O)N2CC=C(c3ccc(-c4ncccn4)cc3)CC2)C1

IC50 [8]: 9.7 nM
SMILES: CCO[C@@]1(C(=O)Nc2ccc3[nH]nc(-c4ccc(F)cc4)c3c2)CCN(CC(=O)N2CCN(c3ccc(-c4ncccn4)cc3)CC2)C1

CLH [9]: 18 µL/min/1e6 cells
half-life [13]: 2.5 h
IC50 (Cytochrome P450 3A4 [2]): 2000 nM
MRT [14]: 2.5 h
half-life [15]: 2 h
clearance [16]: 8.4 mL/min/kg
AUC [11]: 17.2 µM·h
IC50 (Cytochrome P450 3A4 [3]): > 30000 nM
IC50 (HT-29 [4]): 80 nM
CLH [12]: 7 µL/min/1e6 cells
MRT [17]: 5.1 h
IC50 [8]: 7 nM
bioavailability [18]: 75%
bioavailability [5]: 70%
clearance [19]: 7.6 mL/min/kg
Papp [7]: 60 ×10⁻⁶ cm/s
SMILES: CS[C@@]1(C(=O)Nc2ccc3[nH]nc(-c4ccc(F)cc4)c3c2)CCN(CC(=O)N2CC=C(c3ccc(-c4ncccn4)cc3)CC2)C1
inhibition at […] (hERG (KCNH2)): 8%

IC50 [8]: 5.8 nM
SMILES: O=C(CN1CCC(CF)(C(=O)Nc2ccc3[nH]nc(-c4ccc(F)cc4)c3c2)C1)N1CCN(c2ccc(-c3ncccn3)cc2)CC1 (stereo not drawn)

IC50 [8]: 5.6 nM
SMILES: CS[C@@]1(C(=O)Nc2ccc3[nH]nc(-c4ccc(F)cc4)c3c2)CCN(CC(=O)N2CCN(c3ccc(-c4ncccn4)cc3)CC2)C1

IC50 [8]: 5.5 nM
SMILES: O=C(Nc1ccc2[nH]nc(-c3ccc(F)cc3)c2c1)[C@@H]1CCN(CC(=O)N2CCN(c3ccc(-c4ncccn4)cc3)CC2)C1

CLH [9]: 36 µL/min/1e6 cells
IC50 (Cytochrome P450 3A4 [2]): 2200 nM
AUC [10]: 1.88 µM·h
AUC [11]: 4.53 µM·h
IC50 (Cytochrome P450 3A4 [3]): 31000 nM
IC50 (HT-29 [4]): 79 nM
CLH [12]: 33 µL/min/1e6 cells
IC50 [8]: 4.8 nM
IC50 (HT-29 [6]): 88 nM
SMILES: CO[C@@]1(C(=O)Nc2ccc3[nH]nc(-c4ccc(F)cc4)c3c2)CCN(CC(=O)N2CC=C(c3ccc(-c4ncccn4)cc3)CC2)C1
inhibition at […] (hERG (KCNH2)): 56%

IC50 [8]: 2.1 nM
SMILES: CO[C@@]1(C(=O)Nc2ccc3[nH]nc(-c4ccc(F)cc4)c3c2)CCN(CC(=O)N2CCN(c3ccc(-c4ncccn4)cc3)CC2)C1

From ChEMBL document CHEMBL4219261, “Discovery of 3(S)-thiomethyl pyrrolidine ERK inhibitors for oncology” (Bioorg Med Chem Lett, 2018)
